Experimental data reported in publication doi:10.1101/2023.03.24.534094v2 (biorxiv, 2023).
Where two headings read alike, the source gives them in different places.

Columns and labels:
Experiment in all cases: biochemical
p38a = p38a (Homo sapiens, UniProt Q16539)
EphA7 = EphA7 (Homo sapiens, UniProt Q15375)
CaMK4 = molecular target: T1, CaMK4 (Homo sapiens, UniProt Q16566)
T1 sequence (Q16566 1-473): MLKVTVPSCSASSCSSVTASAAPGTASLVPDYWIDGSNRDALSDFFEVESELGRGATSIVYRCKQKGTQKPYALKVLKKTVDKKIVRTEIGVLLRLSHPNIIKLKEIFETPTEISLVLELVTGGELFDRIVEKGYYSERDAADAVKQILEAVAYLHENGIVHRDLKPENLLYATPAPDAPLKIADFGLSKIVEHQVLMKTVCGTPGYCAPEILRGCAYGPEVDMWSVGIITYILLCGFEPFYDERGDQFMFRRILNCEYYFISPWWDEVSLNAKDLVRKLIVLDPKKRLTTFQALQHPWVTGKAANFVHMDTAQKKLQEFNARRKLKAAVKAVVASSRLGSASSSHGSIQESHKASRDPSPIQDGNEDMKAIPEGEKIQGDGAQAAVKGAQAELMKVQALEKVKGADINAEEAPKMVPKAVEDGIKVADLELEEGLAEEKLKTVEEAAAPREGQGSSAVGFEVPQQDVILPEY

MAP2K6 = molecular target: T2, MAP2K6 (Homo sapiens, UniProt P52564)
T2 sequence (P52564 1-334): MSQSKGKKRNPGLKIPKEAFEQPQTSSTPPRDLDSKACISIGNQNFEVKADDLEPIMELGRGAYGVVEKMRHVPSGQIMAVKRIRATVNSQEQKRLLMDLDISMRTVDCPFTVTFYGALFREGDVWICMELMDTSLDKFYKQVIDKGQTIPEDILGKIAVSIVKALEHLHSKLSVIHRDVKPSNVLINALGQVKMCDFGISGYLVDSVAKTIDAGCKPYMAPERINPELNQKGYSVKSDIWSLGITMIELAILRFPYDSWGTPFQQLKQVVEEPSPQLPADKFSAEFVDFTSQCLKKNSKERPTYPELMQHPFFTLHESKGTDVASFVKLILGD

ABL1 = ABL1 (Homo sapiens, UniProt P00519)
Sequence of ABL1 (P00519 whole entry): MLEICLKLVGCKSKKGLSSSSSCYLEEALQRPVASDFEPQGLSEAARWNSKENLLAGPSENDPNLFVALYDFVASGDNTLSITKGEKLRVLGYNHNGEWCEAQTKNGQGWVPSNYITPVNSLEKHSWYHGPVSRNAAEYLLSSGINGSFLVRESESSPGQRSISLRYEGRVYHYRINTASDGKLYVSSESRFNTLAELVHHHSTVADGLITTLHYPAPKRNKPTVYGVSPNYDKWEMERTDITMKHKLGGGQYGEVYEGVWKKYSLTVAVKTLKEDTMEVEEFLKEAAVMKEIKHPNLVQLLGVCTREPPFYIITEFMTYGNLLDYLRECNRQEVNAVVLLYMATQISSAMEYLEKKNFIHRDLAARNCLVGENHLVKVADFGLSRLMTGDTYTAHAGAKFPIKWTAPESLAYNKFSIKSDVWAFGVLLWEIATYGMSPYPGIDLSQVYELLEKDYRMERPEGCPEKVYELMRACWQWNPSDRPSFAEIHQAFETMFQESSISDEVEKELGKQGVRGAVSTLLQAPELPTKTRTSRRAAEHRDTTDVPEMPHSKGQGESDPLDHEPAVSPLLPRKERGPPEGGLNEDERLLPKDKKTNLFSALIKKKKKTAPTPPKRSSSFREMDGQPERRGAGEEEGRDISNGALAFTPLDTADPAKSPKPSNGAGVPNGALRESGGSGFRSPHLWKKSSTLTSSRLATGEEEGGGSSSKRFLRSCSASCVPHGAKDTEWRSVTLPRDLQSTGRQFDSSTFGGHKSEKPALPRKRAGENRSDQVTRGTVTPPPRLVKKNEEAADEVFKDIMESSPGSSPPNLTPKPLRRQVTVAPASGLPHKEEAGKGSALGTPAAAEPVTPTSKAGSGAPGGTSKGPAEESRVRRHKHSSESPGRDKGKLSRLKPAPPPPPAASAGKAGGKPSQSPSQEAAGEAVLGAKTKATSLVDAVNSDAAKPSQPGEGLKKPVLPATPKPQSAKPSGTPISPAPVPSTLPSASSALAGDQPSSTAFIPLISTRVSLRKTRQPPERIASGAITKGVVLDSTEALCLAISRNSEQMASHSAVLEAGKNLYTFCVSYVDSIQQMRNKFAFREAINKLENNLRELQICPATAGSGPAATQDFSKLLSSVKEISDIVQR

SRPK1 = SRPK1 (Homo sapiens, UniProt Q96SB4)
Sequence of SRPK1 (Q96SB4 whole entry): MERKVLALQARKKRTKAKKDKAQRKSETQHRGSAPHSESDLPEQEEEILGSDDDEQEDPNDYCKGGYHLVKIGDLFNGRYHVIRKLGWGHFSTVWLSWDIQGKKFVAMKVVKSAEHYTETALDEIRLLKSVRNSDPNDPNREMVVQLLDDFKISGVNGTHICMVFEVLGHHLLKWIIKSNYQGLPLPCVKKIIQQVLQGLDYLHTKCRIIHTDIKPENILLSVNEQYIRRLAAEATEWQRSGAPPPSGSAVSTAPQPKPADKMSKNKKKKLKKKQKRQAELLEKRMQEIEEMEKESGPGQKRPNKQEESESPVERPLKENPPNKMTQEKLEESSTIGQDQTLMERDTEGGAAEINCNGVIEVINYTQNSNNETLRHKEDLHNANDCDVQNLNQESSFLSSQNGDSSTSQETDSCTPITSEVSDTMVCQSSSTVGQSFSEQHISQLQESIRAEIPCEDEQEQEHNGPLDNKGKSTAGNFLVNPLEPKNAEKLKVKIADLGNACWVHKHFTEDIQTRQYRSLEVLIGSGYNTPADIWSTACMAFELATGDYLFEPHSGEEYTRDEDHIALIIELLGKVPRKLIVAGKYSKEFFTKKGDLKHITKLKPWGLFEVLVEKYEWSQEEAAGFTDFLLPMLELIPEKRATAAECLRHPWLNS

CK1d = CK1d (Homo sapiens, UniProt P48730)
Sequence of CK1d (P48730 whole entry): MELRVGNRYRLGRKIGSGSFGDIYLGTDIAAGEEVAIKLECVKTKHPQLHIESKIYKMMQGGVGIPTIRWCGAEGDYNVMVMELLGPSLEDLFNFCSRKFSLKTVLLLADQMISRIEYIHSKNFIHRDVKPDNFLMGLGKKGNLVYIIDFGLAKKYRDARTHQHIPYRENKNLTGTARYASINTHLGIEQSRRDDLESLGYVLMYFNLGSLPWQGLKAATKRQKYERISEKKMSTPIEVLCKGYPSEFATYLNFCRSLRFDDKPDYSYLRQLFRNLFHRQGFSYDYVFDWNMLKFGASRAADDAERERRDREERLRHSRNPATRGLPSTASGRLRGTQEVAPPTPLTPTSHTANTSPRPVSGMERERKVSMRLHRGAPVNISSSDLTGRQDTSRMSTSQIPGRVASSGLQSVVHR

CaMKK2 = CaMKK2 (Homo sapiens, UniProt Q96RR4)
Sequence of CaMKK2 (Q96RR4 whole entry): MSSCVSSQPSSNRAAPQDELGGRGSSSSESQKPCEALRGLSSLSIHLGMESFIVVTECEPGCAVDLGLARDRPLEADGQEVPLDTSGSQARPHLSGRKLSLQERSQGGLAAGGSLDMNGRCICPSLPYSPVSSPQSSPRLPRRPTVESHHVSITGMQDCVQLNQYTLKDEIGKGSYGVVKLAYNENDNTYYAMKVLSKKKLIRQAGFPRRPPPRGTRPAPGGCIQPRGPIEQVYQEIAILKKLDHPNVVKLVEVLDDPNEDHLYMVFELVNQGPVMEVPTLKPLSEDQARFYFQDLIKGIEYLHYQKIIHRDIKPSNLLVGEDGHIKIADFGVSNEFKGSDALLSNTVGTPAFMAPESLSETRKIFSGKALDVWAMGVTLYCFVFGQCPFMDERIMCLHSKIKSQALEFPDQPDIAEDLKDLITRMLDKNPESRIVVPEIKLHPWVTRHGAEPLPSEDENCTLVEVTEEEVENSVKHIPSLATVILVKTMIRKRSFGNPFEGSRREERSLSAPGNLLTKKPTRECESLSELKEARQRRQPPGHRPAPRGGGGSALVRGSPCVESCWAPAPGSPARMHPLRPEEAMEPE

DRAK1 = molecular target: T3, DRAK1 (Homo sapiens, UniProt Q9UEE5)
T3 sequence (Q9UEE5 1-414): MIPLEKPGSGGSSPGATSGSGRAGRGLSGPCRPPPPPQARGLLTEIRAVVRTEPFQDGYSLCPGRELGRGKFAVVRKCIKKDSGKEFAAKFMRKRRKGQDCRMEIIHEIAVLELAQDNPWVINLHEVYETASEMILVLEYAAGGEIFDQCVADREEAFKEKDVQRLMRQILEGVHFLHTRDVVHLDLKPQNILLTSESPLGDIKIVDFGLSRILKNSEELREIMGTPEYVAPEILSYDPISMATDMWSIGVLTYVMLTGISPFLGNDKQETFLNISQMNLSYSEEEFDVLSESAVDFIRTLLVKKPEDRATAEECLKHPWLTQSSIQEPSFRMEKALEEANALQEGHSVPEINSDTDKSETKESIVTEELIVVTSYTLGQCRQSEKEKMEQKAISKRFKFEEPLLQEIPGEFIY

JNK2 = JNK2 (Homo sapiens, UniProt P45984)
Sequence of JNK2 (P45984 whole entry): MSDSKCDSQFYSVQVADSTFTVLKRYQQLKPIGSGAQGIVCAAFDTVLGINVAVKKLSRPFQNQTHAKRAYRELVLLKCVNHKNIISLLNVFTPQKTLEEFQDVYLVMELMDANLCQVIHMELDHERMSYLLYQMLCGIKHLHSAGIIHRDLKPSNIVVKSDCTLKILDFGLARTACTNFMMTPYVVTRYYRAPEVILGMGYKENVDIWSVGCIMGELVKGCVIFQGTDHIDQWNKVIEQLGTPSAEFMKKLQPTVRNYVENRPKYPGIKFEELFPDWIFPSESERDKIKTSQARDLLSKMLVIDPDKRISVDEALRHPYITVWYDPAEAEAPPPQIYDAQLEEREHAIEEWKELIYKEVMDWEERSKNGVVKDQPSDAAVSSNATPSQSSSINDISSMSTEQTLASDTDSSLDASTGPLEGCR

Erk7 = molecular target: T4, Erk7 (Homo sapiens, UniProt Q8TD08)
T4 sequence (Q8TD08 1-544): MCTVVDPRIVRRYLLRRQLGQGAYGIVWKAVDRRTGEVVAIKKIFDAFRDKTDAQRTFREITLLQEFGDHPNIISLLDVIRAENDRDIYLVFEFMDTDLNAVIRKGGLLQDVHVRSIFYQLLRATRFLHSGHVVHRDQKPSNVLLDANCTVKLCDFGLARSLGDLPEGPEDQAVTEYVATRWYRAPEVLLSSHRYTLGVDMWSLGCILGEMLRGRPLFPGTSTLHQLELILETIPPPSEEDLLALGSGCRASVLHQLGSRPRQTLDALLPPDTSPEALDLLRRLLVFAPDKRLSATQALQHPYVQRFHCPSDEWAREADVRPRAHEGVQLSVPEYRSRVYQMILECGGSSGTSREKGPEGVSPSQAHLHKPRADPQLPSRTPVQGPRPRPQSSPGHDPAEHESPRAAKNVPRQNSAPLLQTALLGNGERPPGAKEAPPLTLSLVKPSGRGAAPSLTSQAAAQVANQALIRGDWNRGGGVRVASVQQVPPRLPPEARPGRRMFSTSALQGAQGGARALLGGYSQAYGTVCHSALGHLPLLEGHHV

Sequence of p38a (Q16539 whole entry): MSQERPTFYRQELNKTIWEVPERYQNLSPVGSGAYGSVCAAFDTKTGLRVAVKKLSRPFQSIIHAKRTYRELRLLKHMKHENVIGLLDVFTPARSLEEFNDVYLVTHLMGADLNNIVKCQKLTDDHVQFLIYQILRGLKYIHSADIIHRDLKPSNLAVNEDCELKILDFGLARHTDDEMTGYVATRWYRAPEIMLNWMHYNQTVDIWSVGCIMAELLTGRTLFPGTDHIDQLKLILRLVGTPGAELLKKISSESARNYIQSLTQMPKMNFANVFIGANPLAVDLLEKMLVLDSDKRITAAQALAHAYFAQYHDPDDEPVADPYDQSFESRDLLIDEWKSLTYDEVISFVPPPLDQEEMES
Sequence of EphA7 (Q15375 whole entry): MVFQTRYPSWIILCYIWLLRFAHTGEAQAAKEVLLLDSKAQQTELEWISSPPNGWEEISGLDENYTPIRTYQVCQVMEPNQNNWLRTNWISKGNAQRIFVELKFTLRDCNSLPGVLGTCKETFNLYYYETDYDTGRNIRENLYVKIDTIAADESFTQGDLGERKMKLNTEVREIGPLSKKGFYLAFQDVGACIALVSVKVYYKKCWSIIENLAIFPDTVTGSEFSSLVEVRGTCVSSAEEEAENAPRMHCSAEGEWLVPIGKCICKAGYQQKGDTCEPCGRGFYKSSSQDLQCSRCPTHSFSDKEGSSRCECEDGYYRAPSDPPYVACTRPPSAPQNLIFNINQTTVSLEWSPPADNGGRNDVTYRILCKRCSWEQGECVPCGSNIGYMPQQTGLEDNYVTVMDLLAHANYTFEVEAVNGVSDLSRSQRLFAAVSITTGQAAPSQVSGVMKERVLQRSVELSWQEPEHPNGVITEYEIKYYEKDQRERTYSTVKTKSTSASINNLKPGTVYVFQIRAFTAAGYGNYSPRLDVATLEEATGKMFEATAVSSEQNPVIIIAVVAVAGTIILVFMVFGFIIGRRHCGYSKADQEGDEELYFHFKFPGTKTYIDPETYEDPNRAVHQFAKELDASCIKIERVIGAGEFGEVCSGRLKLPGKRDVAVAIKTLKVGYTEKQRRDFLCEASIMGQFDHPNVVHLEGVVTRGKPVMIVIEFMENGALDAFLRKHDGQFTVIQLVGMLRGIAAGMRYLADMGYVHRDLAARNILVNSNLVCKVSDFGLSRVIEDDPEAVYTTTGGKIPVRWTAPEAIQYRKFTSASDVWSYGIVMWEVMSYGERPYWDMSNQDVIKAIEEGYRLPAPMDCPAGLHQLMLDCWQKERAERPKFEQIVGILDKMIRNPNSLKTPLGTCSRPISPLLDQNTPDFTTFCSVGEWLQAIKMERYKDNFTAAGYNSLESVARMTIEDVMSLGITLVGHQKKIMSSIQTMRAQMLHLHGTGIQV

Structure (SMILES): CNc1ncc2cc(-c3cc(F)c(-c4cccc(C)n4)cc3F)c(=O)n(CCCCN)c2n1 [compound 12, 8-(4-Aminobutyl)-6-(2,5-difluoro-4-(6-methylpyridin-2-yl)phenyl)-2-(methylamino)pyrido[2,3-d]pyrimidin-7(8H)-one]
- ΔTm at 10 µM (p38a; read-out: dTm 12): 0.4 °C
- ΔTm at 10 µM (EphA7; read-out: dTm 12): 2.3 °C
- ΔTm at 10 µM (CaMK4; read-out: dTm 12): 2.9 °C
- ΔTm at 10 µM (MAP2K6; read-out: dTm 12): 3.8 °C

Structure (SMILES): CNc1ncc2cc(-c3cc(C(F)(F)F)ccc3Cl)c(=O)n(CCCCN)c2n1 [compound 9, 8-(4-Aminobutyl)-6-(2-chloro-5-(trifluoromethyl)phenyl)-2-(methylamino)pyrido[2,3-d]pyrimidin-7(8H)-one]
- ΔTm at 10 µM (p38a; read-out: dTm 9): 4.2 °C
- ΔTm at 10 µM (EphA7; read-out: dTm 9): 0.6 °C
- ΔTm at 10 µM (CaMK4; read-out: dTm 9): 0.1 °C
- ΔTm at 10 µM (MAP2K6; read-out: dTm 9): 0.8 °C

Structure (SMILES): CNc1ncc2cc(-c3cc(Br)ccc3Cl)c(=O)n(CCCCN)c2n1 [compound 6, 8-(4-Aminobutyl)-6-(5-bromo-2-chlorophenyl)-2-(methylamino)pyrido[2,3-d]pyrimidin-7(8H)-one]
- ΔTm at 10 µM (ABL1; read-out: dTm 6): 4.5 °C
- ΔTm at 10 µM (SRPK1; read-out: dTm 6): 0.1 °C
- ΔTm at 10 µM (CK1d; read-out: dTm 6): 0.9 °C
- ΔTm at 10 µM (CaMKK2; read-out: dTm 6): -0.2 °C
- ΔTm at 10 µM (DRAK1; read-out: dTm 6): -0.1 °C
- ΔTm at 10 µM (JNK2; read-out: dTm 6): -0.4 °C
- ΔTm at 10 µM (Erk7; read-out: dTm 6): 0.3 °C

Structure (SMILES): CNc1ncc2cc(-c3cc(F)ccc3F)c(=O)n(CCCCN)c2n1 [compound 5, 8-(4-Aminobutyl)-6-(2,5-difluorophenyl)-2-(methylamino)pyrido[2,3-d]pyrimidin-7(8H)-one]
- ΔTm at 10 µM (ABL1; read-out: dTm MR22 (5)): 6.9 °C
- ΔTm at 10 µM (SRPK1; read-out: dTm MR22 (5)): 0.3 °C
- ΔTm at 10 µM (CK1d; read-out: dTm MR22 (5)): 1.3 °C
- ΔTm at 10 µM (CaMKK2; read-out: dTm MR22 (5)): -0.1 °C
- ΔTm at 10 µM (DRAK1; read-out: dTm MR22 (5)): -0.7 °C
- ΔTm at 10 µM (JNK2; read-out: dTm MR22 (5)): 0.2 °C
- ΔTm at 10 µM (Erk7; read-out: dTm MR22 (5)): -1.5 °C

Structure (SMILES): CNc1ncc2cc(-c3cc(Cl)ccc3Cl)c(=O)n(CCCCN)c2n1 [compound 8, 8-(4-Aminobutyl)-6-(2,5-dichlorophenyl)-2-(methylamino)pyrido[2,3-d]pyrimidin-7(8H)-one]
- ΔTm at 10 µM (p38a; read-out: dTm 8): 6 °C
- ΔTm at 10 µM (EphA7; read-out: dTm 8): 0.5 °C
- ΔTm at 10 µM (CaMK4; read-out: dTm 8): 0.1 °C
- ΔTm at 10 µM (MAP2K6; read-out: dTm 8): 1.3 °C

Structure (SMILES): CNc1ncc2cc(-c3ccc(-c4cccc(C)n4)cc3Cl)c(=O)n(CC3OCC(N)CO3)c2n1 (stereo not shown) [compound 2, G-5555]
- dTm G-5555 (2) (ABL1; 10 µM, binder): 5.1 °C
- dTm G-5555 (2) (SRPK1; 10 µM, binder): -0.4 °C
- dTm G-5555 (2) (CK1d; 10 µM, binder): 0.4 °C
- dTm G-5555 (2) (CaMKK2; 10 µM, binder): 1.1 °C
- dTm G-5555 (2) (DRAK1; 10 µM, binder): -0.7 °C
- dTm G-5555 (2) (JNK2; 10 µM, binder): 0.6 °C
- dTm G-5555 (2) (Erk7; 10 µM, binder): 0.3 °C

Structure (SMILES): CNc1ncc2cc(-c3cc(Cl)ccc3Br)c(=O)n(CCCCN)c2n1 [compound 10, 8-(4-Aminobutyl)-6-(2-bromo-5-chlorophenyl)-2-(methylamino)pyrido[2,3-d]pyrimidin-7(8H)-one]
- ΔTm at 10 µM (p38a; read-out: dTm 10): 6.1 °C
- ΔTm at 10 µM (EphA7; read-out: dTm 10): 0.5 °C
- ΔTm at 10 µM (CaMK4; read-out: dTm 10): 0.1 °C
- ΔTm at 10 µM (MAP2K6; read-out: dTm 10): 1.5 °C

Structure (SMILES): CNc1ncc2cc(-c3cc(Br)ccc3Br)c(=O)n(CCCCN)c2n1 [compound 11, 8-(4-Aminobutyl)-6-(2,5-dibromophenyl)-2-(methylamino)pyrido[2,3-d]pyrimidin-7(8H)-one]
- ΔTm at 10 µM (p38a; read-out: dTm 11): 6.4 °C
- ΔTm at 10 µM (EphA7; read-out: dTm 11): 0.6 °C
- ΔTm at 10 µM (CaMK4; read-out: dTm 11): 0.1 °C
- ΔTm at 10 µM (MAP2K6; read-out: dTm 11): 1.6 °C

Structure (SMILES): CNc1ncc2cc(-c3ccccc3Cl)c(=O)n(CCCCN)c2n1 [compound 4, 8-(4-Aminobutyl)-6-(2-chlorophenyl)-2-(methylamino)pyrido[2,3-d]pyrimidin-7(8H)-one]
- ΔTm at 10 µM (ABL1; read-out: dTm MR21 (4)): 9.2 °C
- ΔTm at 10 µM (SRPK1; read-out: dTm MR21 (4)): 0.6 °C
- ΔTm at 10 µM (CK1d; read-out: dTm MR21 (4)): 2.9 °C
- ΔTm at 10 µM (CaMKK2; read-out: dTm MR21 (4)): 0.6 °C
- ΔTm at 10 µM (DRAK1; read-out: dTm MR21 (4)): 0.1 °C
- ΔTm at 10 µM (JNK2; read-out: dTm MR21 (4)): -0.1 °C
- ΔTm at 10 µM (Erk7; read-out: dTm MR21 (4)): 0.8 °C

Structure (SMILES): CNc1ncc2cc(-c3cc(Br)ccc3Cl)c(=O)n(C[C@H]3OC[C@H](N)CO3)c2n1 [compound 7, 8-(((2r,5r)-5-Amino-1,3-dioxan-2-yl)methyl)-6-(5-bromo-2-chlorophenyl)-2-(methylamino)pyrido[2,3-d]pyrimidin-7(8H)-one]
- ΔTm at 10 µM (ABL1; read-out: dTm 7): 4.1 °C
- ΔTm at 10 µM (SRPK1; read-out: dTm 7): 0.1 °C
- ΔTm at 10 µM (CK1d; read-out: dTm 7): -0.1 °C
- ΔTm at 10 µM (CaMKK2; read-out: dTm 7): 0.5 °C
- ΔTm at 10 µM (DRAK1; read-out: dTm 7): 0.6 °C
- ΔTm at 10 µM (JNK2; read-out: dTm 7): 1.1 °C
- ΔTm at 10 µM (Erk7; read-out: dTm 7): 0.1 °C
